What was measured:
Settings in all cases: Compound concentration 1.0 uM
[1] = target: Serine/threonine-protein kinase MRCK alpha (Homo sapiens) (UniProt Q5VT25)
[2] = target: T1, Mitogen-activated protein kinase kinase kinase 5 (Homo sapiens) (UniProt Q99683)
T1 sequence (whole entry): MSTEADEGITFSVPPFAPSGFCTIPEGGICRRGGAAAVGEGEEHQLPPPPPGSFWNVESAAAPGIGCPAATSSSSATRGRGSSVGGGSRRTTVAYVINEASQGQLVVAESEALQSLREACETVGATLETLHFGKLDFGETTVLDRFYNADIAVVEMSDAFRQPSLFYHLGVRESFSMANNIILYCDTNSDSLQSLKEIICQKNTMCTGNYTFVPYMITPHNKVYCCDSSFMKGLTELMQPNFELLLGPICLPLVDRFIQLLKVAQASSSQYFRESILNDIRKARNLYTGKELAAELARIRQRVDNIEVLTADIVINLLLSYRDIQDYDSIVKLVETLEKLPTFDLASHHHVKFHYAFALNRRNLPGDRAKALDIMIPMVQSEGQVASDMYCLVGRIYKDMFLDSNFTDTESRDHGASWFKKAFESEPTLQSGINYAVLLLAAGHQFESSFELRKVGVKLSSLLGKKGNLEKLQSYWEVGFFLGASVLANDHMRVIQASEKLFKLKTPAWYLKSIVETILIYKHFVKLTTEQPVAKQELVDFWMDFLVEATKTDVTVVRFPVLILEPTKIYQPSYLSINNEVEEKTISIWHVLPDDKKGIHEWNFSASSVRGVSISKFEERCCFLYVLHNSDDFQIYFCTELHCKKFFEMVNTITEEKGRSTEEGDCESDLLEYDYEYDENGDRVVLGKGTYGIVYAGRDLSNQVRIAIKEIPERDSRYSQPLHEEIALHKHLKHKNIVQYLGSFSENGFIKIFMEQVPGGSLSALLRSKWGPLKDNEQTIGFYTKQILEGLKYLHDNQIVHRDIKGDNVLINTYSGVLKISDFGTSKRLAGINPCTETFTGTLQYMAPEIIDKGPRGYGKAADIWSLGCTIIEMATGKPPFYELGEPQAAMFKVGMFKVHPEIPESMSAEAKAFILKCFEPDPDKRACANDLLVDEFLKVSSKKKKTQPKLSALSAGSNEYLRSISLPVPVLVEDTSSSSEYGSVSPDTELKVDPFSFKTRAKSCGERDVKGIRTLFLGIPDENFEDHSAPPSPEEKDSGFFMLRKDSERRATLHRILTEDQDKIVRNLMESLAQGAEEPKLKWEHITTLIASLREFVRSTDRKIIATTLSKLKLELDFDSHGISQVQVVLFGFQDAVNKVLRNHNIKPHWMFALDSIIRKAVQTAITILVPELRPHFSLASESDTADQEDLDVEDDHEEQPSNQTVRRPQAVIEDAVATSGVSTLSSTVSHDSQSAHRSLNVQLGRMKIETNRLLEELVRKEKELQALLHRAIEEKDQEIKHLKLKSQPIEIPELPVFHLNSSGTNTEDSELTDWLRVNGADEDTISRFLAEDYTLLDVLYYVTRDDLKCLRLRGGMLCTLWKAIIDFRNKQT

[3] = target: MAP kinase-activated protein kinase 2 (Homo sapiens) (UniProt P49137)
[4] = target: Proto-oncogene tyrosine-protein kinase receptor Ret (Homo sapiens) (UniProt P07949)
[5] = target: Angiopoietin-1 receptor (Homo sapiens) (UniProt Q02763)
[6] = target: T2, Serine/threonine-protein kinase TBK1 (Homo sapiens) (UniProt Q9UHD2)
T2 sequence (whole entry): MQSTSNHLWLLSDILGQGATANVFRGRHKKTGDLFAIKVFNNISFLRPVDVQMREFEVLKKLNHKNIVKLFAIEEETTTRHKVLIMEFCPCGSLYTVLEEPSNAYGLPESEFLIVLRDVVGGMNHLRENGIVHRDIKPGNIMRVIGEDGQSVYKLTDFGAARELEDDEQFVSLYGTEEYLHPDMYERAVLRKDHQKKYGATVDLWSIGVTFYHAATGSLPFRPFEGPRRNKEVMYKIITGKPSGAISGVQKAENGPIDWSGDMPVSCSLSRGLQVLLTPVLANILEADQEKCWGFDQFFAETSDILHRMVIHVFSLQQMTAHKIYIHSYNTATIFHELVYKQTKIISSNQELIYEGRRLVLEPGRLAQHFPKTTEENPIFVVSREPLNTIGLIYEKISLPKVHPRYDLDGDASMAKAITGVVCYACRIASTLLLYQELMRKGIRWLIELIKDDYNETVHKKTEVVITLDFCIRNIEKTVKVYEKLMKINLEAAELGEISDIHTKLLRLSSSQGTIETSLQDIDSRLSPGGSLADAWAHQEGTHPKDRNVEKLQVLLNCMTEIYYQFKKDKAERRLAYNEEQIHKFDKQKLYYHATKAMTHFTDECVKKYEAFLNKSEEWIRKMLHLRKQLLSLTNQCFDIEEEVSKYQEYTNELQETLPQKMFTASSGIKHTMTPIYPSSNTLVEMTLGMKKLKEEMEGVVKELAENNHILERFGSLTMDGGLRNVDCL

[7] = target: Serine/threonine-protein kinase Chk2 (Homo sapiens) (UniProt O96017)
[8] = target: T3, Serine/threonine-protein kinase DCLK3 (Homo sapiens) (UniProt Q9C098)
T3 sequence (whole entry): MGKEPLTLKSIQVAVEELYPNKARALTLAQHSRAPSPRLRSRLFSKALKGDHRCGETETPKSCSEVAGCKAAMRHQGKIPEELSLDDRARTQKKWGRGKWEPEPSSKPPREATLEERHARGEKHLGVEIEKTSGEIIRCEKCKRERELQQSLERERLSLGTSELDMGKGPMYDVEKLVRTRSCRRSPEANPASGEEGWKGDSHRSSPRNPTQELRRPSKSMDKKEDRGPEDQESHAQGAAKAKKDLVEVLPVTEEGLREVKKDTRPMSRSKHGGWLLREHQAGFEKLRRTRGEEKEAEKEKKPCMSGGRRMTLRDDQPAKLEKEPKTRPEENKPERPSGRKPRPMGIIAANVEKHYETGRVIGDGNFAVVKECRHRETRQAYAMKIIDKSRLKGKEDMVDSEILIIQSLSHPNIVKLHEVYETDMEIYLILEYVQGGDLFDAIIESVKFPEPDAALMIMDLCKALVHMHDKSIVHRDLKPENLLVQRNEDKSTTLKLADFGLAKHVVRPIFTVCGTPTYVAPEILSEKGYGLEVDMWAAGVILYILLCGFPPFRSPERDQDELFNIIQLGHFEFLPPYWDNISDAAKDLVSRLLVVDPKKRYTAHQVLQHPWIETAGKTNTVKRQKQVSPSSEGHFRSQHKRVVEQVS

Measured: % residual kinase activity

Chain of Serine/threonine-protein kinase MRCK alpha (Homo sapiens) (Q5VT25 whole entry): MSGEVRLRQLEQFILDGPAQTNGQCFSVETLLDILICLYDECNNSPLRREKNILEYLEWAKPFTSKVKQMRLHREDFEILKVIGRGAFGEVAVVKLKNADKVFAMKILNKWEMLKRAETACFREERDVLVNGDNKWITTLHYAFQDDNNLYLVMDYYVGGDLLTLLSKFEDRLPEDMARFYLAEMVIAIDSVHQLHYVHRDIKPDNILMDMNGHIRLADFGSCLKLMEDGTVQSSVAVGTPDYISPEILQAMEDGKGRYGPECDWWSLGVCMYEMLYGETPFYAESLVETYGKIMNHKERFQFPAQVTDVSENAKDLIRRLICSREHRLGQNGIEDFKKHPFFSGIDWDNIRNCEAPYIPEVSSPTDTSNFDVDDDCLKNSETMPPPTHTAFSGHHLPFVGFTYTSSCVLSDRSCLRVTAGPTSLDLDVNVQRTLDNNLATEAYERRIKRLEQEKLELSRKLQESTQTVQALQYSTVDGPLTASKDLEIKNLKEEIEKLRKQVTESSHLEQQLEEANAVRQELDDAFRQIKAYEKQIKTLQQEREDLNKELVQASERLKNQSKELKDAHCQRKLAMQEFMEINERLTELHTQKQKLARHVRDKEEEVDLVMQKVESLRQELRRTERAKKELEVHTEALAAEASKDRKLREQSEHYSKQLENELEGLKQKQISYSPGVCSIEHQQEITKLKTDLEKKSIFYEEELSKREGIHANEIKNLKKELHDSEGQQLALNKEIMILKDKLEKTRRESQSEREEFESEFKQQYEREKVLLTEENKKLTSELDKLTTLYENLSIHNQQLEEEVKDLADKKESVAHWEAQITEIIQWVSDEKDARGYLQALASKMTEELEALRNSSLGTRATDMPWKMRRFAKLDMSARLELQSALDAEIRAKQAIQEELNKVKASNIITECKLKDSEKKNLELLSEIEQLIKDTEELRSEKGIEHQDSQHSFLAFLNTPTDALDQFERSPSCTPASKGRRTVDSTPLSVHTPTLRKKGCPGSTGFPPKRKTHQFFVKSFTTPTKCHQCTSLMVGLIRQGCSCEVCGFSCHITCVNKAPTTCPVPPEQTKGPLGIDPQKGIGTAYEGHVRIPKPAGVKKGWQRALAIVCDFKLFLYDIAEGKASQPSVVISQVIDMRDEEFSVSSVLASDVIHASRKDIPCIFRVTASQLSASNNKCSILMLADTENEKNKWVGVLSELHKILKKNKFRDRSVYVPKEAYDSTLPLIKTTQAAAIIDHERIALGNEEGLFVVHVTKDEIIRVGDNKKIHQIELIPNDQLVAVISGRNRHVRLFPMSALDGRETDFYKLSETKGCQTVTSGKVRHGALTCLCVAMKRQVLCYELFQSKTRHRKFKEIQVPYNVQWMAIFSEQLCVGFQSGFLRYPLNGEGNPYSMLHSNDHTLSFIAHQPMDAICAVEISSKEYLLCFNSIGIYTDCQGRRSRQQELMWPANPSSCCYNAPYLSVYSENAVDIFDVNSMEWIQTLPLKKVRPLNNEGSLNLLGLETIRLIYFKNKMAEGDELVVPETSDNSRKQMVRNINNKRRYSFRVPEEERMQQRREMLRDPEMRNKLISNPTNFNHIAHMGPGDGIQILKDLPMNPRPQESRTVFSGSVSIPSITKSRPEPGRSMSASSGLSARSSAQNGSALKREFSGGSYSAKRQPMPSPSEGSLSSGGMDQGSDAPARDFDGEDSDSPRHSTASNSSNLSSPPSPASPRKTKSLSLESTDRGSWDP
Chain of Serine/threonine-protein kinase Chk2 (Homo sapiens) (O96017 whole entry): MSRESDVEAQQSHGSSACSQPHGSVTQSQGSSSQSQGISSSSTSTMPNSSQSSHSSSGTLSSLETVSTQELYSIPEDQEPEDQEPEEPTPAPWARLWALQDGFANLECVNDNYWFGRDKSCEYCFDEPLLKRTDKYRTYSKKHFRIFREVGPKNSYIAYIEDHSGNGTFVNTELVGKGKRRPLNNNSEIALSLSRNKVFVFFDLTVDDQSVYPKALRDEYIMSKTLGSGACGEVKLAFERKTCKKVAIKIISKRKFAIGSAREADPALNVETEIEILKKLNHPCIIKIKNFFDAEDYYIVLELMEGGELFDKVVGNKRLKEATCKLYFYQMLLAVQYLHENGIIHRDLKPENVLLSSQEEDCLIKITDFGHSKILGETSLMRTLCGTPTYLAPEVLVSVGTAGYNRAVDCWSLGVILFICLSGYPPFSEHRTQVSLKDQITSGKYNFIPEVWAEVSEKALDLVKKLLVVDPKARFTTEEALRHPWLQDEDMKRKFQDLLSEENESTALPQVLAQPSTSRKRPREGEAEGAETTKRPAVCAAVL
Chain of MAP kinase-activated protein kinase 2 (Homo sapiens) (P49137 whole entry, looked up): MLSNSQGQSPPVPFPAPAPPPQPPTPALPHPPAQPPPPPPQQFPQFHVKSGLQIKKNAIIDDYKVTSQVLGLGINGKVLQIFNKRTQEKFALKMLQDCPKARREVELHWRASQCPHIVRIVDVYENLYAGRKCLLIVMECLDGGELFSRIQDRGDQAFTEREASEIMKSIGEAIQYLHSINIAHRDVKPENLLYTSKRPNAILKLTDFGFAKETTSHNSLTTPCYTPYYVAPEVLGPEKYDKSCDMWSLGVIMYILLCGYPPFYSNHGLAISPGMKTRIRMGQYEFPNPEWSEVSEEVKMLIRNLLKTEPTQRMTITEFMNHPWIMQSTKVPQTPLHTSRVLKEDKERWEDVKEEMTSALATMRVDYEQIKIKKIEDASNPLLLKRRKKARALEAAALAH
Chain of Proto-oncogene tyrosine-protein kinase receptor Ret (Homo sapiens) (P07949 whole entry): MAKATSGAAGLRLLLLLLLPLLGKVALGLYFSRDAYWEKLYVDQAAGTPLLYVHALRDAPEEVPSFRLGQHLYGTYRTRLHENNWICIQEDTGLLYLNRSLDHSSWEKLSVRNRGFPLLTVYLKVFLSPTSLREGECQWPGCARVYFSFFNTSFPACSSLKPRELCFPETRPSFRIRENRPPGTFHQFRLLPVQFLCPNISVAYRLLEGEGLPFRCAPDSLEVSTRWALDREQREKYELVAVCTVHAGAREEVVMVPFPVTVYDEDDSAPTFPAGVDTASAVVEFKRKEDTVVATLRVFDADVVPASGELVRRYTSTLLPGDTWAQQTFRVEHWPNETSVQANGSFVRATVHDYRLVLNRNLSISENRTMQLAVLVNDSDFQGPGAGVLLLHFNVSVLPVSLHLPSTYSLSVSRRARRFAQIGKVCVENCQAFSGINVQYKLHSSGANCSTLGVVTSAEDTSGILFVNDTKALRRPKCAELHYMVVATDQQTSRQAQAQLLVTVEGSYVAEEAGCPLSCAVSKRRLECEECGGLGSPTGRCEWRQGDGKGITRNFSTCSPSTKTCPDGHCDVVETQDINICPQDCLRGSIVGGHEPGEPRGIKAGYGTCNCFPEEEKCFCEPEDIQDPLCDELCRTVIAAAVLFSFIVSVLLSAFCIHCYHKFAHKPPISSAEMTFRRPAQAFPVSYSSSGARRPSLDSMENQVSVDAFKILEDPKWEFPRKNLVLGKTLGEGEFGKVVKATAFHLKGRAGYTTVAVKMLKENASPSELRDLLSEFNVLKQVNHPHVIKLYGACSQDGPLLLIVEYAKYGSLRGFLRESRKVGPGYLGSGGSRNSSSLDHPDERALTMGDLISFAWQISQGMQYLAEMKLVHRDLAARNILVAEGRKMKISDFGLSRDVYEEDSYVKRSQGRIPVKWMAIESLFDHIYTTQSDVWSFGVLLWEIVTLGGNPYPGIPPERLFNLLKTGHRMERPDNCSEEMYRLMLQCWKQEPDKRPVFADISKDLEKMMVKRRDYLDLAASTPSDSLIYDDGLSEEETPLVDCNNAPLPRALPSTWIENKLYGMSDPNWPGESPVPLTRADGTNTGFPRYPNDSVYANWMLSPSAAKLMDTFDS
Chain of Angiopoietin-1 receptor (Homo sapiens) (Q02763 whole entry): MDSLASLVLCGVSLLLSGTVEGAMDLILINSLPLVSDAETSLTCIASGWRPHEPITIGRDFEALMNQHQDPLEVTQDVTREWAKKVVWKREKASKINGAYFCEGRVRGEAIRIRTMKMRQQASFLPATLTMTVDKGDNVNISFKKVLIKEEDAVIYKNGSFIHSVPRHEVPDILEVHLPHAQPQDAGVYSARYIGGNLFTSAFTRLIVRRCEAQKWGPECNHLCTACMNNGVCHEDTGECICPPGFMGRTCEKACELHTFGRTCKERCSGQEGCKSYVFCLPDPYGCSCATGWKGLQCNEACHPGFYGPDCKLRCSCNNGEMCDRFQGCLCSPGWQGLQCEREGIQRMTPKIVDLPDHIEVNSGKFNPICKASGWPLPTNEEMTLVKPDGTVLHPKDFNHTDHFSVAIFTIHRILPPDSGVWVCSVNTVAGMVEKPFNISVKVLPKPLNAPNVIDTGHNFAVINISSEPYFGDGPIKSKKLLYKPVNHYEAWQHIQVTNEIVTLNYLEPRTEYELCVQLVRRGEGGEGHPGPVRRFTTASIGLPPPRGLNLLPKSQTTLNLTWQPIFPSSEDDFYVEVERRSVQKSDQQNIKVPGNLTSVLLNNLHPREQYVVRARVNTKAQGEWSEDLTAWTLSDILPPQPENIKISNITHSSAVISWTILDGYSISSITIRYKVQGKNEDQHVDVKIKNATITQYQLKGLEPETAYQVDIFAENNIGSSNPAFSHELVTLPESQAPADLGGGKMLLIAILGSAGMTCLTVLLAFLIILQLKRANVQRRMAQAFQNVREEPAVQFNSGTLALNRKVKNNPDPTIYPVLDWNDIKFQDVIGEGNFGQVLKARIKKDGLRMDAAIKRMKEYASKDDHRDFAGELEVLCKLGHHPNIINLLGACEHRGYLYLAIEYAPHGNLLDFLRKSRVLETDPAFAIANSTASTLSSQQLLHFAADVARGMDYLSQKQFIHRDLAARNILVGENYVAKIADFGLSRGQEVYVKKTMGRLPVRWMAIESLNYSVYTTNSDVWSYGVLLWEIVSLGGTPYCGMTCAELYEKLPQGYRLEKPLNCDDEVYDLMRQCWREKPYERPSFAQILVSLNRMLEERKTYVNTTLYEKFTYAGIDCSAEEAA

CN1CCN(c2cnc3c(C4CCN(C(=O)c5ccc(OC(F)(F)F)cc5N)CC4)ncnc3c2)CC1 [BAY-885]
inactive: [1] 111% | [2] 99% | [3] 81% | [4] 122% | [5] 84% | [6] 118% | [7] 92% | [8] 92%

— ChEMBL document CHEMBL4507268 (2021)
